Results taken from patent US20180214428A1, “3-(1H-INDOL-2-YL)-1H-PYRAZOLO[3,4-B]PYRIDINES AND THERAPEUTIC USES THEREOF” (Samumed, LLC, priority 2015, published 2018).

Key:
[1] = test system: primary human fibroblasts derived from IPF patients (LL29 cells); assay: Inhibition of the fibrotic process: αSMA staining in TGF-β1 treated LL29 fibroblasts; type: cell-based; conditions: Homo sapiens, Fibroblast, 96 h, TGF-β1 20 ng/mL, 4 days, % αSMA positive cells
Source text: Representative compounds were screened using primary human fibroblasts (derived from IPF patients) treated with TGF-β1 to determine their ability to inhibit the fibrotic process.
Primary human fibroblasts derived from IPF patients (LL29 cells) [^1Xiaoqiu Liu, et. al., “Fibrotic Lung Fibroblasts Show Blunted Inhibition by cAMP Due to Deficient cAMP Response Element-Binding Protein Phosphorylation”, Journal of Pharmacology and Experimental Therapeutics (2005), 315(2), 678-687; ^2Watts, K. L., et. al., “RhoA signaling modulates cyclin D1 expression in human lung fibroblasts; implications for idiopathic pulmonary fibrosis”, Respiratory Research (2006), 7(1), 88] were obtained from American Type Culture Collection (ATCC) and expanded in F12 medium supplemented with 15% Fetal Bovine Serum and Penicillin/Streptomycin.
Each compound was dissolved in DMSO as a 10 mM stock and used to prepare compound source plates. Serial dilution (1:2, 11-point dose-response curves from 10 μM to […]) and compound transfer was performed using the ECHO 550 (Labcyte, Sunnyvale, Calif.) into 384-well clear bottom assay plates (Greiner Bio-One) with appropriate DMSO backfill for a final DMSO concentration of 0.1%. LL29 cells are plated at 1,500 cells/well in 80 μL/well F12 medium supplemented with 1% Fetal Bovine Serum. One hour after addition of the cells, TGF-01 (Peprotech; 20 ng/mL) was added to the plates to induce fibrosis (ref. 1 and 2 above). Wells treated with TGF-β1 and containing DMSO were used as controls. Cells were incubated at 37° C. and 5% CO2 for 4 days. Following incubation for 4 days, SYTOX green nucleic acid stain (Life Technologies [Thermo Fisher Scientific]) was added to the wells at a final concentration of 1 μM and incubated at room temperature for 30 min. Cells were then fixed using 4% formaldehyde (Electron Microscopy Sciences), washed 3 times with PBS followed by blocking and permeabilization using 3% Bovine Serum Albumin (BSA; Sigma) and 0.3% Triton X-100 (Sigma) in PBS. Cells were then stained with antibody specific to α-smooth muscle actin (aSMA; Abcam) (ref. 1 and 2 above) in 3% Bovine Serum Albumin (BSA; Sigma) and 0.3% Triton X-100 (Sigma) in PBS, and incubated overnight at 4° C. Cells were then washed 3 times with PBS, followed by incubation with Alexa Flor-647 conjugated secondary antibody (Life Technologies [Thermo Fisher Scientific]) and DAPI at room temperature for 1 hour. Cells were then washed 3 times with PBS and plates were sealed for imaging. αSMA staining was imaged by excitation at 630 nm and emission at 665 nm and quantified using the Compartmental Analysis program on the CellInsight CX5 (Thermo Scientific). Dead or apoptotic cells were excluded from analysis based on positive SYTOX green staining. % of total cells positive for aSMA were counted in each well and normalized to the average of 11 wells treated with TGF-01 on the same plate using Dotmatics' Studies Software. The normalized averages (fold change over untreated) of 3 replicate wells for each compound concentration were used to create dose-responses curves and EC50 values were calculated using non-linear regression curve fit in the Dotmatics' Studies Software. For EC50 of >10 μM, the percent inhibition at 10 μM is provided.

IL-6 = IL-6 inhibition in LPS-stimulated THP-1 monocytes (HTRF); type: cell-based, human; conditions: Homo sapiens; THP-1 cells, 500 ng/mL LPS, 22 h, HTRF IL-6 readout; 10-point dose-response from 10 μM
Procedure: Human monocyte cell line (THP-1 cells; Catalog # TIB-202, ATCC, Manassas, Va.) were cultured in Roswell Park Memorial Institute (RPMI) 1640 Medium (Catalog #21870-100, Buffalo, N.Y.) with 1% L-glutamine, 1% HEPES, 1% Sodium Pyruvate, 2% Sodium Bicarbonate supplemented with 100 units/mL penicillin, 50 μg/mL streptomycin, 2-mercaptoethanol (0.05 mM) [basal medium] and 10% fetal bovine serum (Catalog #16140089, Life Technologies, Carlsbad, Calif.) at 37° C. and 5% CO2.
THP-1 cells were cultured in basal media with 1% FBS for 24 hours before the start of the assay. Each compound was dissolved in DMSO as a 10 mM stock and used to prepare compound source plates. Serial dilution (1:3, 10-point dose-response curves starting from 10 μM) and compound transfer was performed using the ECHO 550 (Labcyte, Sunnyvale, Calif.) into 384-well white low volume assay plates (Greiner Bio-One) with appropriate DMSO backfill for a final DMSO concentration of 0.1%. THP-1 cells were plated at 5000 cells/well in the 384-well plates and incubated at 37° C. for 2 h. 500 ng/mL of LPS was added after 2 hours and cells were incubated for another 22 hours at 37° C. Plates were spun in a centrifuge for 1 minute at […] and a mixture of anti-IL6 XL665, and anti-IL6 Cryptate diluted in reconstitution buffer (Cisbio Inc.) was added to each well. Following incubation for 3 hrs at room temperature, Homogeneous Time-Resolved Fluorescence (HTRF) was measured using the Envision (Perkin Elmer) at 665 nm and […]. The ratio of fluorescence at 665 nm to 620 nm was used as a readout for IL6 quantification. All samples were processed in duplicate. Readings were normalized to DMSO treated cells and normalized activities were utilized for EC50 calculations using the dose-response log (inhibitor) vs. response variable slope (four parameters) nonlinear regression feature available in GraphPad Prism 5.0 (or Dotmatics). For EC50 of >10 μM, the percent inhibition at 10 μM is provided.

SW480 colon cancer cells = assay: Cell viability assay (CellTiter-Blue) in SW480 colon cancer cells; type: cell-based, human; conditions: Homo sapiens, 96 h, four days, CellTiter-Blue
Procedure: Representative compounds were screened using the following assay procedure to assess the effect on cell viability as described below.
Each compound was dissolved in DMSO as a 10 mM stock and used to prepare compound source plates. Serial dilution (1:3, 8-point dose-response curves from 10 μM to 0.0045 μM) and compound transfer was performed using the ECHO 550 (Labcyte, Sunnyvale, Calif.) into 96-well clear bottom, black-walled plates (Corning-Costar).
Approximately 2×10^3 SW480 colon cancer cells were seeded into each well and allowed to incubate in the presence or absence of compound for four days at 37° C./5% CO2. Eight replicates of DMSO-treated cells served as controls and cells treated with compound were performed in duplicate.
After incubation, 20 μL of CellTiter-Blue (Promega) was added to each well allowed to incubate for approximately 3 hours. This reagent was a buffered solution which contains resazurin, metabolically active cells were able to reduce rezarurin (blue) into resorufin (pink) which was highly fluorescent. This measured fluorescence was used as a readout for cell viability.
After incubation, the plates were read at Ex 560 nm Em 590 nm (Cytation 3, BioTek). Dose-response curves were generated and EC50 concentration values were calculated using non-linear regression curve fit in the GraphPad Prism (San Diego, Calif.) or Dotmatics' Studies Software (Bishops Stortford, UK). For EC50 of >10 μM, the percent inhibition at 10 μM is provided.

[2] = test system: Wnt activity (Sp5-Luc reporter gene, SW480 colon carcinoma cells); assay: Screening assay for Wnt activity: Sp5-Luc reporter gene assay in SW480 cells; type: cell-based, human; conditions: Homo sapiens, overnight incubation
Source text: The screening assay for Wnt activity is described as follows. Reporter cell lines can be generated by stably transducing cancer cell lines (e.g., colon cancer) or primary cells (e.g., IEC-6 intestinal cells) with a lentiviral construct that includes a Wnt-responsive promoter driving expression of the firefly luciferase gene.
SW480 colon carcinoma cells were transduced with a lentiviral vector expressing luciferase with a human Sp5 promoter consisting of a sequence of eight TCF/LEF binding sites. SW480 cells stably expressing the Sp5-Luc reporter gene and a hygromycin resistance gene were selected by treatment with 150 μg/mL of hygromycin for 7 days. These stably transduced SW480 cells were expanded in cell culture and used for all further screening activities. Each compound was dissolved in DMSO as a 10 mM stock and used to prepare compound source plates. Serial dilution (1:3, 10-point dose-response curves starting from 10 μM) and compound transfer was performed using the ECHO 550 (Labcyte, Sunnyvale, Calif.) into 384-well white solid bottom assay plates (Greiner Bio-One) with appropriate DMSO backfill for a final DMSO concentration of 0.1%. For Sp5-Luc reporter gene assays, the cells were plated at 4,000 cells/well in 384-well plates with medium containing 1% fetal bovine serum and incubated overnight at 37° C. and 5% CO2. Following incubation, 20 μl of BrightGlo luminescence reagent (Promega) was added to each well of the 384-well assay plates. The plates were placed on an orbital shaker for 2 min and then luminescence was quantified using the Envision (Perkin Elmer) plate reader. Readings were normalized to DMSO only treated cells, and normalized activities were utilized for EC50 calculations using the dose-response log (inhibitor) vs. response variable slope (four parameters) nonlinear regression feature available in GraphPad Prism 5.0 (or Dotmatics). For EC50 of >10 μM, the percent inhibition at 10 μM is provided.

Row | Compound | EC50 (IL-6) [nM] | EC50 (SW480 colon cancer cells) [nM] | EC50 [2] [nM] | EC50 [1] [nM]
1 | CC(C)(C)C(=O)Nc1cncc(-c2cnc3[nH]nc(-c4cc5c(-c6cc(F)cc(CNS(C)(=O)=O)c6)cccc5[nH]4)c3c2)c1 [Compound 458, N-(5-(3-(4-(3-Fluoro-5-(methylsulfonamidomethyl)phenyl)-1H-indol-2-yl)-1H-pyrazolo[3,4-b]pyridin-5-yl)pyridin-3-yl)pivalamide] | 146 | 1060 | 485 | 1200
2 | Cn1cc(-c2cnc3[nH]nc(-c4cc5c(-c6cccs6)cccc5[nH]4)c3c2)cn1 [Compound 702, 5-(1-Methyl-1H-pyrazol-4-yl)-3-(4-(thiophen-2-yl)-1H-indol-2-yl)-1H-pyrazolo[3,4-b]pyridine] | 1370 | 1120 | 1320 | 874
3 | Cc1ncc(-c2cnc3[nH]nc(-c4cc5ncccc5[nH]4)c3c2)n1C [Compound 997, 5-(1,2-Dimethyl-1H-imidazol-5-yl)-3-(1H-pyrrolo[3,2-b]pyridin-2-yl)-1H-pyrazolo[3,4-b]pyridine] | 9000 | 3940 | 1080 | 744

Further molecules by falling EC50 (IL-6), results first:

Row | EC50 (IL-6) [nM] | EC50 (SW480 colon cancer cells) [nM] | EC50 [2] [nM] | Compound | EC50 [1] [nM]
4 | 7400 | 3440 | 3810 | CN(C)c1cncc(-c2cnc3[nH]nc(-c4cc5ncccc5[nH]4)c3c2)c1 [Compound 485, 5-(3-(1H-Pyrrolo[3,2-b]pyridin-2-yl)-1H-pyrazolo[3,4-b]pyridin-5-yl)-N,N-dimethylpyridin-3-amine] | 2790
5 | 1440 | 1120 | 283 | CN(C)c1cncc(-c2cnc3[nH]nc(-c4cc5c(-c6cc(F)cc(CNS(C)(=O)=O)c6)cccc5[nH]4)c3c2)c1 [Compound 457, N-(3-(2-(5-(5-(Dimethylamino)pyridin-3-yl)-1H-pyrazolo[3,4-b]pyridin-3-yl)-1H-indol-4-yl)-5-fluorobenzyl)methanesulfonamide] | 1720
6 | 547 | 1690 | 210 | CS(=O)(=O)NCc1cc(F)cc(-c2cccc3[nH]c(-c4n[nH]c5ncc(-c6cncc(NC(=O)c7ccccc7)c6)cc45)cc23)c1 [Compound 461, N-(5-(3-(4-(3-Fluoro-5-(methylsulfonamidomethyl)phenyl)-1H-indol-2-yl)-1H-pyrazolo[3,4-b]pyridin-5-yl)pyridin-3-yl)benzamide] | 1340
7 | 541 | 1060 | 484 | CS(=O)(=O)NCc1cc(F)cc(-c2cccc3[nH]c(-c4n[nH]c5ncc(-c6cncc(NC(=O)C7CC7)c6)cc45)cc23)c1 [Compound 470, N-(5-(3-(4-(3-Fluoro-5-(methylsulfonamidomethyl)phenyl)-1H-indol-2-yl)-1H-pyrazolo[3,4-b]pyridin-5-yl)pyridin-3-yl)cyclopropanecarboxamide] | 1330
8 | 100 | 1360 | 530 | O=C(Nc1cncc(-c2cnc3[nH]nc(-c4cc5ccccc5[nH]4)c3c2)c1)C1CCC1 [Compound 247, N-(5-(3-(1H-Indol-2-yl)-1H-pyrazolo[3,4-b]pyridin-5-yl)pyridin-3-yl) cyclobutanecarboxamide] | 67
